Like-named read-outs stand apart in the source and are kept apart here.
Tests used:
[1] = Relative bioavailability study of voxilaprevir amorphous free acid tablets vs Form VI tablets in healthy subjects (fasted, fed); assay type: in vivo, human; conditions: for AUC(0-inf) / Cmax: human, in vivo, oral, 100 mg
From the text: Accordingly, a spray dried dispersion of voxilaprevir in the amorphous free acid form was selected for incorporation into the tablet formulation.

[2] = Physical (solid-state) stability, XRPD; assay type: physicochemical; conditions: for tendency to crystallize in the presence of pre-existing crystalline voxilaprevir: spiked SOF/VEL SSD/VOX SSD tablets
Protocol: As described previously, Form VIII of voxilaprevir is characterized by an X-ray powder diffractogram comprising the following peaks (±0.2°): at 7.8, 8.2, and 20.2°2θ, as determined on a diffractometer using Cu-Kα radiation.
Voxilaprevir SSD is hygroscopic, with a reversible weight gain of 11% when cycled between 0% and 90% RH at 25° C.
The impact of voxilaprevir SSD potency on the chemical and physical stability thereof was also evaluated (Table 5). This development study compared the properties of typical voxilaprevir SSD with 50% w/w voxilaprevir/50% w/w copovidone (Lot C) to those of sub-potent voxilaprevir SSD with 40% w/w voxilaprevir/60% w/w copovidone (Lot D) and super-potent voxilaprevir SSD with 60% w/w voxilaprevir/40% w/w copovidone (Lot E). Voxilaprevir SSD was packaged in a designated commercial packaging configuration (i.e., polyethylene bags sealed in aluminum bags with 5% w/w desiccant) and stored for 6 months at both 25° C./60% RH and 40° C./75% RH. […] All samples remained amorphous by XRPD throughout the duration of the study.
The impact of reprocessed voxilaprevir SSD on the chemical and physical stability of voxilaprevir SSD was additionally evaluated. Voxilaprevir was reprocessed (re-dissolved, spray-dried, and secondary dried) twice and packaged in a designated commercial packaging configuration (i.e., polyethylene bags sealed in aluminum bags with 5% w/w desiccant) and stored for 6 months at both 25° C./60% RH and 40° C./75% RH. […] All samples remained amorphous by XRPD throughout the duration of the study.
In some embodiments, the film-coated tablets were packaged in 75 and 100 mL white HDPE bottles (Lots A and B, respectively, as described in Tables 11A, 11B) with 1 g silica gel desiccant canisters and a polyester fiber coil. The 75 and 100 mL HDPE bottles contained fourteen and twenty eight tablets, respectively. […] The packaged tablets (14 and 28 counts) were evaluated for stability at 40° C./75% RH and 25° C./60% RH. Additionally, the 14-count bottles (without cap) were evaluated for stability under open conditions at 40° C./75% RH. […]

[3] = Photostability (light exposure, ICH Q1B); assay type: physicochemical; conditions: tablets film-coated to weight gains of 2.1 to 5.4%, ICH Q1B
Protocol: In some embodiments, and the Examples presented herein, the tablet formulation includes sofosbuvir having Form 6 and, optionally, a trace amount of Form 7.
Tablet cores and film-coated tablets were evaluated per ICH Q1B guidelines with a total of illumination of more than 1.2 million-lux hours and a total irradiance of more than 200 W·hr/m^2.

[4] = Storage stability: appearance, assay/label strength (LS), total impurities/degradation products; assay type: physicochemical; conditions: all conditions
Protocol: In some embodiments, the film-coated tablets were packaged in 75 and 100 mL white HDPE bottles (Lots A and B, respectively, as described in Tables 11A, 11B) with 1 g silica gel desiccant canisters and a polyester fiber coil. The 75 and 100 mL HDPE bottles contained fourteen and twenty eight tablets, respectively. Each HDPE bottle was capped using a white, continuous thread, child-resistant polypropylene screw cap with an […], aluminum-faced line. The packaged tablets (14 and 28 counts) were evaluated for stability at 40° C./75% RH and 25° C./60% RH. Additionally, the 14-count bottles (without cap) were evaluated for stability under open conditions at 40° C./75% RH.
For each of the impact studies, the sofosbuvir/velpatasvir SSD/voxilaprevir SSD tablets were packaged in a designated commercial packaging configuration (28-count, 100 mL HPDE bottle, coil, 1 g desiccant), and stored for 12 weeks at 25° C./60% RH and 40° C./75% RH. Tablets were also packaged in open containers (28-count, 100 mL HPDE bottle without cap) and stored for 4 weeks at 40° C./75% RH and for 1 week at 50° C./92% RH.
The sofosbuvir/velpatasvir SSD/voxilaprevir SSD tablets were packaged in the designated commercial packaging configuration (28-count, 100 mL HPDE bottle, coil, 1 g desiccant), and stored for 6 months at 25° C./60% RH and 40° C./75% RH.

[5] = Tablet dissolution in 50 mM sodium acetate buffer pH 5.0 with 2.0% w/v Polysorbate 80 and 0.001% w/v BHT, 75 rpm, 900 mL, 37° C., USP Type II; assay type: physicochemical; conditions: tablets containing voxilaprevir SSD
Protocol: FIGS. 10-12 depict additional dissolution profiles for the sofosbuvir/velpatasvir SSD/voxilaprevir SSD tablets having the formulation described in Table 13 and which were used in phase 1, 2, and 3 clinical studies, where the dissolution testing was conducted at pH 5.0 acetate buffer containing 2.0% w/v polysorbate 80. Four batches of the sofosbuvir/velpatasvir SSD/voxilaprevir SSD tablets were tested, with Batch A manufactured at 100 kg and Batches B, C and D manufactured at 145 kg. All other aspects of the formulation and manufacturing process were otherwise equivalent. The four batches were packed in the same commercial configuration: 28 count, 100 mL HPDE bottle with 1 g silica gel desiccant canister and a polyester fiber coil. […] Moreover, for Batch A, the amount dissolved at 30 min remained between 98 and 100% for sofosbuvir, between 90 and 92% for velpatasvir SSD, and between 89 and 93% for voxilaprevir SSD. […] For Batch D, the amount dissolved at 30 min remained at 100% for sofosbuvir, between 90 and 91% for velpatasvir SSD, and between 89 and 91% for voxilaprevir SSD. Release of velpatasvir SSD and voxilaprevir SSD from the sofosbuvir/velpatasvir SSD/voxilaprevir SSD tablets associated with all four Batches was complete after 60 minutes.

[6] = Tablet dissolution as a function of medium pH and composition (Apparatus II, 75 rpm, 900 mL, 37° C.); assay type: physicochemical; conditions: Formulation G tablets
BCS classification = assay type: physicochemical
[7] = Tablet dissolution in 50 mM sodium acetate buffer pH 5.0 with 2.0% w/v Polysorbate 80 and 0.001% w/v BHT, 75 rpm, 900 mL, 37° C., USP Type II; assay type: physicochemical; conditions: for dissolution at 30 minutes: after 4 weeks open at 40° C./75% RH
[8] = Voxilaprevir Form VI single and multiple oral dose pharmacokinetics in healthy subjects; assay type: in vivo, human; conditions: for Cmax / half-life / Tmax / AUC / AUC(0-inf) / AUC(0-t): human, plasma; for Cmax / AUC / AUC(0-inf) / AUC(0-t): mean
Protocol: Pub. No. 2015/0175625 A1. Initial studies were conducted using the crystalline Form VI of voxilaprevir. As described previously, Form VI of voxilaprevir is characterized by an X-ray powder diffractogram comprising the following peaks (±0.2°): at 14.6, 15.4, and 20.0°2θ, as determined on a diffractometer using Cu-Kα radiation. Following single and multiple oral doses of voxilaprevir, Form VI, maximum plasma concentrations occurred between 2.0 and 5.0 hours (median tmax). […] Steady-state concentrations of voxilaprevir, Form VI were achieved after 7 days of once-daily dosing across all dose levels (Table 2).

[9] = 100 mg tablets, healthy subjects
[10] = Amorphous Free Acid 100 mg, healthy subjects, fed (with moderate food)
[11] = single dose 100 mg, healthy subjects, fasted (N = 15)

Compound: CC[C@@H]1[C@@H]2CN(C(=O)[C@H](C(C)(C)C)NC(=O)O[C@@H]3C[C@H]3CCCCC(F)(F)c3nc4ccc(OC)cc4nc3O2)[C@@H]1C(=O)N[C@]1(C(=O)NS(=O)(=O)C2(C)CC2)C[C@H]1C(F)F [Amorphous Free Acid]
- higher Cmax compared to tablets (2×50 mg) comprising voxilaprevir, Form VI [1, 9]: ~43%
- higher exposure (AUC) compared to tablets (2×50 mg) comprising voxilaprevir, Form VI [1, 9]: approximately 9%
- AUC(0-inf) ([1]; Amorphous Free Acid 100 mg, healthy subjects, fasted (N = 15)): 367 ng·h/mL
- AUC(0-inf) [1, 10]: 494 ng·h/mL
- Cmax [1, 10]: 44.2 ng/mL
- AUC(0-inf) [1, 11]: 367 ng·h/mL
- Cmax [1, 11]: 32.7 ng/mL
- Cmax Geometric Least Square Ratio, Amorphous Free Acid/Form VI GMR ([1]; single dose, fasted): 1.43
- tendency to crystallize in the presence of pre-existing crystalline voxilaprevir [2]: no tendency to crystallize

Compound: CC[C@@H]1[C@@H]2CN(C(=O)[C@H](C(C)(C)C)NC(=O)O[C@@H]3C[C@H]3CCCCC(F)(F)c3nc4ccc(OC)cc4nc3O2)[C@@H]1C(=O)N[C@]1(C(=O)NS(=O)(=O)C2(C)CC2)C[C@H]1C(F)F [Voxilaprevir, (1aR,5S,8S,9S,10R,22aR)-5-tert-butyl-N-{(1R,2R)-2-(difluoromethyl)-1-[(1-methylcyclopropanesulfonyl)carbamoyl]cyclopropyl}-9-ethyl-18,18-difluoro-14-methoxy-3,6-dioxo-1,1a,3,4,5,6,9,10,18,19,20,21,22,22a-tetradecahydro-8H-7,10-methanocyclopropa[18,19][1,10,3,6]dioxadiazacyclononadecino[11,12-b]quinoxaline-8-carboxamide]
- level of degradation products [3]: 0.0%
- total impurities/degradation products ([4]; desiccant/packaging study tablets, 6 months): 0.0%
- total impurities/degradation products ([4]; tablet Lots A-D from sub-potent/super-potent VEL SSD and VOX SSD): 0.7%
- total impurities/degradation products ([4]; tablets from VEL SSD with 6.0% residual ethanol and VOX SSD with 2.1% residual acetone): 0.0%
- total impurities/degradation products ([4]; tablets from VEL SSD with 7.0% and VOX SSD with 3.2% water content): 0.0%
- released at 30 minutes [5]: 91%
- dissolution at 60 minutes in pH 4.0 and 5.0 containing 2.0% w/v polysorbate 80 [6]: complete dissolution
- dissolution in pH 2.0, 4.5 and 6.8 buffers, FaSSIF and FeSSIF [6]: Incomplete dissolution
- aqueous solubility, pH dependence (BCS classification): pH-dependent solubility
- dissolution at 30 minutes ([7]; SSD potency tablets Lot A): 85%
- dissolution at 30 minutes ([7]; SSD potency tablets Lot B): 91%
- dissolution at 30 minutes ([7]; SSD potency tablets Lots C and D): 92%
- released at 30 minutes ([7]; spiked tablets containing 5% w/w voxilaprevir Form VIII or Form X): 84%
- released at 30 minutes ([7]; spiked tablets containing 10% w/w voxilaprevir Form VIII or Form X): 80%
- released at 30 minutes ([7]; spiked tablets containing 20% w/w voxilaprevir Form VIII or Form X): 73%
- released at 30 minutes ([7]; tablets containing 0% w/w crystalline voxilaprevir): 91%
- released at 30 minutes ([7]; tablets containing neat amorphous voxilaprevir free acid (physical mixture with copovidone)): 76%

Compound: COC[C@H]1C[C@@H](c2ncc(-c3ccc4c(c3)COc3cc5c(ccc6nc([C@@H]7CC[C@H](C)N7C(=O)[C@@H](NC(=O)OC)C(C)C)[nH]c65)cc3-4)[nH]2)N(C(=O)[C@H](NC(=O)OC)c2ccccc2)C1 [amorphous velpatasvir free base]
- tendency to crystallize in the presence of pre-existing crystalline voxilaprevir [2]: no tendency to crystallize

Compound: CC[C@@H]1[C@@H]2CN(C(=O)[C@H](C(C)(C)C)NC(=O)O[C@@H]3C[C@H]3CCCCC(F)(F)c3nc4ccc(OC)cc4nc3O2)[C@@H]1C(=O)N[C@]1(C(=O)NS(=O)(=O)C2(C)CC2)C[C@H]1C(F)F [voxilaprevir, Form VI]
- Cmax ([8]; oral, 30 mg, multiple dose 30 mg): 7.3 ng/mL
- half-life ([8]; oral, 30 mg, multiple dose 30 mg, median): 41 h
- Tmax ([8]; oral, 30 mg, multiple dose 30 mg, median, read-out: tmax): 5 h
- Cmax ([8]; oral, 30 mg, single dose 30 mg): 3.7 ng/mL
- half-life ([8]; oral, 30 mg, single dose 30 mg, median): 9.37 h
- Tmax ([8]; oral, 30 mg, single dose 30 mg, median, read-out: tmax): 4 h
- Cmax ([8]; oral, 100 mg, multiple dose 100 mg): 46 ng/mL
- half-life ([8]; oral, 100 mg, multiple dose 100 mg, median): 30.5 h
- Tmax ([8]; oral, 100 mg, multiple dose 100 mg, median, read-out: tmax): 5 h
- Cmax ([8]; oral, 100 mg, single dose 100 mg): 17.6 ng/mL
- half-life ([8]; oral, 100 mg, single dose 100 mg, median): 36.7 h
- Tmax ([8]; oral, 100 mg, single dose 100 mg, median, read-out: tmax): 3 h
- Cmax ([8]; oral, 300 mg, multiple dose 300 mg): 155 ng/mL
- half-life ([8]; oral, 300 mg, multiple dose 300 mg, median): 27.6 h
- Tmax ([8]; oral, 300 mg, multiple dose 300 mg, median, read-out: tmax): 5 h
- Cmax ([8]; oral, 300 mg, single dose 300 mg): 34.5 ng/mL
- half-life ([8]; oral, 300 mg, single dose 300 mg, median): 35.5 h
- Tmax ([8]; oral, 300 mg, single dose 300 mg, median, read-out: tmax): 2 h
- AUC ([8]; oral, multiple dose 30 mg): 74.2 ng·h/mL
- AUC ([8]; oral, multiple dose 100 mg): 364 ng·h/mL
- AUC ([8]; oral, multiple dose 300 mg): 1030 ng·h/mL
- AUC(0-inf) ([8]; oral, single dose 30 mg): 56.9 ng·h/mL
- AUC(0-t) ([8]; oral, single dose 30 mg): 33 ng·h/mL
- AUC(0-inf) ([8]; oral, single dose 100 mg): 245 ng·h/mL
- AUC(0-t) ([8]; oral, single dose 100 mg): 188 ng·h/mL
- AUC(0-inf) ([8]; oral, single dose 300 mg): 485 ng·h/mL
- AUC(0-t) ([8]; oral, single dose 300 mg): 425 ng·h/mL
- Tmax ([8]; po, single and multiple oral doses, read-out: time of maximum plasma concentrations (median tmax)): 2 to 5 h
- dose linearity of pharmacokinetics ([8]; single and multiple dosing, 30 to 300 mg, healthy subjects): dose-linear pharmacokinetics
- physical stability of crystal form ([2]; converted to crystalline Form VIII): physically metastable

From patent US10912814B2, “Combination formulation of three antiviral compounds” (priority 2016, dated 2021)
